Data published in patent US7994365B2, “Basic acetophenones as inhibitors of NO-synthases” (Christian-Albrechts-Universitaet Zu Kiel, priority 2006, dated 2011).
Structures can show the parent of a compound that is named as a salt.

Target: T1, bNOS (Homo sapiens, UniProt P29475)
T1 construct: purchased Axxora GmbH
Assay: Griess assay: NO-synthase converts L-arginine to L-citrullin and NO, activity measured by nitrite formation
Type: biochemical
Details: maximum inhibition reached; recombinant human isoenzyme, 30 min at 37° C., controls without inhibitor = 100%
Experimental: Although the compound is known from the literature Niwa, H., 1957, Tohoku Yakka Daigaku, 4, 69-78), as yet no NOS-inhibiting action has been described.
In both FIGS. 1 and 2 the bNOS activity is measured by means of nitrite formation. Nitrite is the end product of nitrogen monoxide in oxygen-containing, aqueous solution. Control incubations with all the cofactors, but without inhibitor addition, were 100% established. These are mean values +/− standard deviation of three incubations, in each case measured twice.
The incubations of the synthesized substances with the NO-synthases were carried out as follows: […]
Following preparation, the batches were incubated for 20 min (iNOS and eNOS) or 30 min (bNOS) in the shaking water bath at 37° C. […] After incubating for […] at room temperature, the solutions were measured at a wavelength of 543 nm and the indicated non-enzyme-containing sample was used as the blank reading. […] The nitrite can be quantitatively determined by reaction with sulphanilamide and naphthyl ethylene diamine in an acid medium. This leads to an azo dye, which can be measured spectrophotometrically. […] The relative nitrite formations were determined for the control batches containing no inhibitors. […]

T1 sequence (P29475 whole entry): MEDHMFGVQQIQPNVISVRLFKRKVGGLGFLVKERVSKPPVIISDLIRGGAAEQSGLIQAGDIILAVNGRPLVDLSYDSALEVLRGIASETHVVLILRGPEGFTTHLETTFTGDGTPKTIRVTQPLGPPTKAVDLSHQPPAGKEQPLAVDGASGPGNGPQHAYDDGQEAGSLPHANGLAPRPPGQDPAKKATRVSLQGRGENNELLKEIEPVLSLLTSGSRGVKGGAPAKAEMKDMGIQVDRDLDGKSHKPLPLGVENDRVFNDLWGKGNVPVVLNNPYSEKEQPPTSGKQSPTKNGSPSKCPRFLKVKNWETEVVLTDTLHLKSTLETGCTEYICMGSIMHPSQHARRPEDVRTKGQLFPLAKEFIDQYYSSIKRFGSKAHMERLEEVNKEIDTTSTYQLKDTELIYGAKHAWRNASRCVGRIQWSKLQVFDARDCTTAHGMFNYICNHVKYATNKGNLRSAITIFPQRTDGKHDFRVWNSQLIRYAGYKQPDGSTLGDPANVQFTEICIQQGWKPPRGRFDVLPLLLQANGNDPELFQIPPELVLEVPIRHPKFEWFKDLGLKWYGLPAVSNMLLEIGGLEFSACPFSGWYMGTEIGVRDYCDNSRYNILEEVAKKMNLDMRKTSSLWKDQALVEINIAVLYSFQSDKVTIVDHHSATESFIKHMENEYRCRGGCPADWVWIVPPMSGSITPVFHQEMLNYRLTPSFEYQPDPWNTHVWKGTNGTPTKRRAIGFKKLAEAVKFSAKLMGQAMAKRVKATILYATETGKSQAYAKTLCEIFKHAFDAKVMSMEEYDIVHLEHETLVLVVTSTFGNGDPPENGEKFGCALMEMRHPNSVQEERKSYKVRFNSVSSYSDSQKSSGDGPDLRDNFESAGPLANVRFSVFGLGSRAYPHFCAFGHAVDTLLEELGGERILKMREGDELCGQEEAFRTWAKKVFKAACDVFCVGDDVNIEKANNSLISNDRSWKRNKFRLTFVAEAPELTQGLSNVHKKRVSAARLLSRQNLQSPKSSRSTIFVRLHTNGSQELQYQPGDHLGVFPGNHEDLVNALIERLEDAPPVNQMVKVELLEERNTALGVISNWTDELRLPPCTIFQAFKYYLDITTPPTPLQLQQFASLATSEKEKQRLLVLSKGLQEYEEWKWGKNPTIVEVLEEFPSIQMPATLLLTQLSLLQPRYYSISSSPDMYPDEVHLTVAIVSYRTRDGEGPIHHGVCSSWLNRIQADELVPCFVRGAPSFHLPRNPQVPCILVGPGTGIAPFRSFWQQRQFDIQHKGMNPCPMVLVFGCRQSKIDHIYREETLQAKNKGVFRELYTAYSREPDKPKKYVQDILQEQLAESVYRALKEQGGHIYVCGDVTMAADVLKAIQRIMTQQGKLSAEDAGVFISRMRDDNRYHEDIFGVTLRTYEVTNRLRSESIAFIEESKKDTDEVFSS

| Structure (SMILES) | concentration-dependent inhibition of bNOS |
| --- | --- |
| CN(C)CCC(=O)c1ccc(-c2ccc(Br)cc2)cc1 [4′-(4-bromophenyl)-3-dimethylaminopropiophenone hydrochloride] | up to 88% |
| CN(C)CCCC(=O)c1ccc(-c2ccc(Br)cc2)cc1 [4′-(4-bromophenyl)-4-dimethylaminobutyrophenone hydrochloride] | up to 99% |
